Test results from the supplement of paper PMC10307832.

Legend:
Experiment in all cases: relative viability (nuclei count vs DMSO), 5 days (fraction); higher = more cells survive
[1] = compound: C1=CC=C2C(=C1)C=CC(=C2SSC3=C(C=CC4=CC=CC=C43)O)O [IPA-3] + Cc1cc(Nc2cc(N3CCN(C)CC3)nc(Sc3ccc(NC(=O)C4CC4)cc3)n2)n[nH]1 [Tozasertib] (partner 0.1 µM)
How it was run: (§1)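 Lung cancer cell lines in 1536-well plates were dosed by pin tool the day after seeding, either with one drug alone or with a fixed anchor-drug dose plus five library-drug doses (not always all listed) in √10 steps. After 5 days, cells were fixed and their nuclei stained in one step (final 0.05% Triton X-100, 1% formaldehyde, 1 ug/ml Hoechst), then counted on 4× images. Relative viability is the nuclei count in treated wells divided by that in vehicle wells. Values are medians of duplicate plates.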

[2] = compound: Cc1ccc(-n2nc(C(C)(C)C)cc2NC(=O)Nc2ccc(OCCN3CCOCC3)c3ccccc23)cc1 [Doramapimod] + CC(=O)Nc1cccc(-n2c(=O)n(C3CC3)c(=O)c3c(Nc4ccc(I)cc4F)n(C)c(=O)c(C)c32)c1 [Trametinib] (partner 0.02 µM)
How it was run: as §1

[3] = compound: Cc1ccc(-n2nc(C(C)(C)C)cc2NC(=O)Nc2ccc(OCCN3CCOCC3)c3ccccc23)cc1 [Doramapimod] + Nc1nc2[nH]cc(CCc3ccc(C(=O)N[C@@H](CCC(=O)O)C(=O)O)cc3)c2c(=O)[nH]1 [Pemetrexed] (partner 0.2 µM)
How it was run: as §1

[4] = compound: Cn1c(Nc2ccc(C(F)(F)F)cc2)nc2cc(Oc3ccnc(-c4ncc(C(F)(F)F)[nH]4)c3)ccc21 [RAF265] + Cc1nc(Nc2ncc(C(=O)Nc3c(C)cccc3Cl)s2)cc(N2CCN(CCO)CC2)n1 [Dasatinib] (partner 0.075 µM)
How it was run: as §1

| Cell Line | relative viability ([1]; first compound 0.2 µM) | relative viability ([1]; first compound 0.6325 µM) | relative viability ([1]; first compound 2 µM) | relative viability ([1]; first compound 6.325 µM) | relative viability ([1]; first compound 20 µM) | relative viability ([2]; first compound 0.02 µM) | relative viability ([2]; first compound 0.06325 µM) | relative viability ([2]; first compound 0.2 µM) | relative viability ([2]; first compound 0.6325 µM) | relative viability ([2]; first compound 2 µM) | relative viability ([3]; first compound 0.02 µM) | relative viability ([3]; first compound 0.06325 µM) | relative viability ([3]; first compound 0.2 µM) | relative viability ([3]; first compound 0.6325 µM) | relative viability ([3]; first compound 2 µM) | relative viability ([4]; first compound 0.01 µM) | relative viability ([4]; first compound 0.03162 µM) | relative viability ([4]; first compound 0.1 µM) | relative viability ([4]; first compound 0.3162 µM) | relative viability ([4]; first compound 1 µM) |
| --- | --- | --- | --- | --- | --- | --- | --- | --- | --- | --- | --- | --- | --- | --- | --- | --- | --- | --- | --- | --- |
| 201T | 0.99 | 1 | 0.908 | 0.922 | 1.06 | 0.736 | 0.715 | 0.729 | 0.772 | 0.71 | 0.308 | 0.333 | 0.347 | 0.331 | 0.318 | 0.575 | 0.624 | 0.532 | 0.495 | 0.458 |
| A-427 | 0.18 | 0.242 | 0.201 | 0.224 | 0.248 | 0.763 | 0.714 | 0.79 |  | 0.619 | 0.926 | 1 | 1 |  | 0.988 | 0.641 | 0.615 | 0.685 | 0.469 | 0.131 |
| ABC-1 | 0.18 | 0.183 | 0.19 | 0.188 | 0.185 |  |  |  |  |  |  |  |  |  |  | 0.594 | 0.562 | 0.601 | 0.498 | 0.378 |
| BEN | 0.528 | 0.582 | 0.48 | 0.5 | 0.588 | 0.908 | 0.924 | 1.11 | 0.737 | 0.924 | 0.74 | 0.849 | 0.795 | 0.673 | 0.795 | 0.28 | 0.323 | 0.379 | 0.358 | 0.356 |
| CAL-12T | 0.371 | 0.301 | 0.384 | 0.343 | 0.297 | 0.333 | 0.325 | 0.342 | 0.402 | 0.297 | 1.02 | 1.08 | 1.25 | 1.22 | 0.947 | 0.313 | 0.312 | 0.191 | 0.196 | 0.103 |
| COR-L23 | 0.197 | 0.201 | 0.344 | 0.25 | 0.165 | 0.675 | 0.651 | 0.588 | 0.607 | 0.616 | 0.222 | 0.203 | 0.212 | 0.19 | 0.2 | 0.503 | 0.473 | 0.383 | 0.32 | 0.251 |
| COR-L 105 | 0.335 | 0.463 | 0.32 | 0.403 | 0.342 | 0.391 | 0.419 | 0.478 | 0.462 | 0.318 | 1.21 | 1.05 | 0.995 | 1.31 | 0.951 | 0.311 | 0.319 | 0.258 | 0.159 | 0.158 |
| ChaGo-K-1 | 0.228 | 0.236 | 0.231 | 0.221 | 0.251 | 0.753 | 0.811 | 0.851 | 0.844 | 0.725 | 0.263 | 0.254 | 0.255 | 0.26 | 0.243 | 0.64 | 0.644 | 0.515 | 0.42 | 0.497 |
| EKVX | 0.463 | 0.42 | 0.447 | 0.375 | 0.422 | 0.32 | 0.268 | 0.328 | 0.352 | 0.313 | 0.426 | 0.34 | 0.325 | 0.415 | 0.357 | 0.598 | 0.606 | 0.756 |  | 0.382 |
